pIC50: −log10 of the molar value.
Key:
Assay type in all cases: biochemical
[1] = target: T1, MMP1 (Homo sapiens, UniProt P03956); test: MMP1 inhibition assay in analogy to HNC (MMP8) assay; conditions: for inhibition at 0.2 µM: inhibitor at 200 nM, activated MMP1
T1 sequence (P03956 100-469): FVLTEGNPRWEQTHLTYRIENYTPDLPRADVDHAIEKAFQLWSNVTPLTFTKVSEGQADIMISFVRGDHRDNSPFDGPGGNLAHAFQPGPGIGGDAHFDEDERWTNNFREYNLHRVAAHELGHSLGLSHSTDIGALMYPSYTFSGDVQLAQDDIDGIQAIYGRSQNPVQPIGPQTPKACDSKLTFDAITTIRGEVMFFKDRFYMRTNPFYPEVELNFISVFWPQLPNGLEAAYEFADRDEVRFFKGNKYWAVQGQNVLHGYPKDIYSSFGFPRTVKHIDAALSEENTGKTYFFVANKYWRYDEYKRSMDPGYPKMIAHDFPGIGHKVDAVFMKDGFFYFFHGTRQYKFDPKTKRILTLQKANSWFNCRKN
Description: In order to determine the inhibitory potential of compounds of the general formula I on MMPs such as HNC, the catalytic domain is incubated (isolation and purification see Schnierer, S., Kleine, T., Gote, T., Hillemann, A., Knäuper, V., Tschesche, H., Biochem. Biophys. Res. Commun. (1993), 191, 319-326). Subsequently the initial reaction rate of a standard substrate is measured as described in Grams F. et al., FEBS 335 (1993) 76-80). The results are evaluated in the usual manner (see e.g. Dixon, M., Biochem. J. (1953) 55, 170-202).
The synthetic collagenase substrate is a heptapeptide coupled C-terminally with dinitrophenol (DNP). This DNP residue quenches the fluorescence of the Trp of the heptapeptide. After cleavage of a tripeptide containing the DNP residue, the measurable fluorescence increases.
A solution of enzyme and inhibitor is prepared in assay buffer at 25° C. The reaction is started by addition of the substrate to the solution. The cleavage of the fluorogenic substrate is measured by fluorescence spectroscopy (excitation and emission wavelength at 280 and 350 nm respectively). The IC50 value is determined for an inhibitor concentration at which the reaction rate is halved.
An activation is additionally necessary for MMP2 and MMP1.

[2] = target: T2, catalytic domain (Met80-Gly242) of the human neutrophilic collagenase (MMP8) (Homo sapiens, UniProt P22894); test: MMP8 (HNC) catalytic domain fluorogenic substrate inhibition assay; conditions: 8 nM catalytic domain, 10 μM DNP-heptapeptide substrate, 25° C., pH 7.6
T2 construct: catalytic domain (Met80-Gly242) of the human neutrophilic collagenase (MMP8); made in house
Description: 50 mM Tris/HCl pH 7.6 (Tris=Tris-(hydroxymethyl)-aminomethane)
100 mM NaCl/10 mM CaCl2/5% MeOH (if required)
8 nM catalytic domain (Met80-Gly242) of the human neutrophilic collagenase (MMP8)

[3] = target: T3, MMP2 (Homo sapiens, UniProt P08253); test: MMP2 inhibition assay in analogy to HNC (MMP8) assay; conditions: activated MMP2; other concentrations than MMP8 assay
T3 sequence (P08253 110-660): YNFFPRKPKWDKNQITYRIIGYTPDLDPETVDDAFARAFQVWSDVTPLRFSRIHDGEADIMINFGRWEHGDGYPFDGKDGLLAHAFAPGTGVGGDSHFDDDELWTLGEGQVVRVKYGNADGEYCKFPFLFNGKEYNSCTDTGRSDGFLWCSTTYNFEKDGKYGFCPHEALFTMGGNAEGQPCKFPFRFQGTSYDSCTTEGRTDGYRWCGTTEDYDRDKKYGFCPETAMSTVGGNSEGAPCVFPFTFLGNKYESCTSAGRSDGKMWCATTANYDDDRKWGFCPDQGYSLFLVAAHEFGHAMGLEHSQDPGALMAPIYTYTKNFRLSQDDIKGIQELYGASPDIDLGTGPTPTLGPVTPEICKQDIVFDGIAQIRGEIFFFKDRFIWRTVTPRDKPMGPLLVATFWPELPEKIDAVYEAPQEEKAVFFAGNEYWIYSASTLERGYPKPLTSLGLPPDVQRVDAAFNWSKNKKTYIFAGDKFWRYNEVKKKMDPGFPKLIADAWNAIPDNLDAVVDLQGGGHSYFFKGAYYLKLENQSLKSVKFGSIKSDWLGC

T2 sequence (P22894 100-262): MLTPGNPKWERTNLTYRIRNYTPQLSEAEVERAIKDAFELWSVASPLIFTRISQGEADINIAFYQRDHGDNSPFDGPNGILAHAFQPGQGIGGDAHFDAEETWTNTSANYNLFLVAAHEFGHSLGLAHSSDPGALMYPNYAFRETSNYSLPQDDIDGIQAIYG

inhibition at 0.2 µM [1] [%] | pIC50 [2] | inhibition of MMP1 compared with Marimastat (in words) [1] | pIC50 [3] | Compound | selectivity relative to MMP1 (in words) ([1]; compared with Marimastat, MMP2/MMP8 versus MMP1)
100 |  |  |  | CNC(=O)[C@@H](NC(=O)[C@H](CC(C)C)[C@H](O)C(=O)NO)C(C)(C)C [Marimastat, N2-[3S-hydroxy-4-(N-hydroxyamino)-2R-isobutyl-succinyl)-L-tert-leucine-N1-methylamide, reference compound] | 
20 | 7.74 | substantially poorer than by Marimastat | 7.64 | CNC(=O)[C@@H](NC(=O)C(c1ccc(-c2ccccc2)cc1)C(O)C(=O)NO)C(C)(C)C (mixture of isomers) [example 1.5, 2-Biphenyl-4-yl-N1-((1S)-2,2-dimethyl-1-methyl-carbamoyl-propyl)-3,N4-dihydroxy-succinamide] | clear selectivity advantage relative to MMP1
